Measured values published in patent US20050192279A1, “Pyridazinones as antagonists of alpha4 integrins” (priority 2004, published 2005).

Key:
α4β1 = molecular target: T1, α4β1 (Homo sapiens, UniProt P05556+P13612); experiment: Ramos Cell Adhesion Assay (α4β1 Mediated Adhesion/VCAM-1); type: cell-based; settings: Ramos cell adhesion to hVCAM-1; read-out: α4β1 IC50
T1 construct: Ramos Cell Adhesion Assay (α4β1 Mediated Adhesion/VCAM-1); endogenous in cells; host or cells: Ramos cells
Protocol: Ramos Cell Adhesion Assay (α4β1 Mediated Adhesion/VCAM-1)
Immulon 96 well plates (Dynex) were coated with 100 μL recombinant hVCAM-1 at 4.0 μg/mL in 0.05 M NaCO3 buffer pH 9.0 overnight at 4° C. (R&D Systems). Plates were washed 2 times in PBS with 1% BSA and blocked for 1 h @ room temperature in this buffer. PBS was removed and compounds to be tested (50 μL) were added at 2× concentration. Ramos cells, (50 μL at 2×10^6/mL) labeled with 5 μM Calcein AM (Molecular Probes) for 1 h at 37° C., were added to each well and allowed to adhere for 1 h at room temperature. Plates were washed 4× in PBS+1% BSA and cells were lysed for 15 minutes in 100 μL of 1 M Tris pH 8.0 with 1% SDS.

human α4β7 integrin = molecular target: T2, human α4β7 integrin (Homo sapiens, UniProt P13612+P26010); experiment: α4β7-K562 Cell Adhesion Assay (α4β7 Mediated Adhesion/MAdCAM-1); type: cell-based; settings: α4β7-K562 cell adhesion to hMAdCAM-1; read-out: α4β7 IC50
T2 construct: expressed in transfected cells; host or cells: K562 cells, stably transfected
T2 sequence (P13612 34-1032): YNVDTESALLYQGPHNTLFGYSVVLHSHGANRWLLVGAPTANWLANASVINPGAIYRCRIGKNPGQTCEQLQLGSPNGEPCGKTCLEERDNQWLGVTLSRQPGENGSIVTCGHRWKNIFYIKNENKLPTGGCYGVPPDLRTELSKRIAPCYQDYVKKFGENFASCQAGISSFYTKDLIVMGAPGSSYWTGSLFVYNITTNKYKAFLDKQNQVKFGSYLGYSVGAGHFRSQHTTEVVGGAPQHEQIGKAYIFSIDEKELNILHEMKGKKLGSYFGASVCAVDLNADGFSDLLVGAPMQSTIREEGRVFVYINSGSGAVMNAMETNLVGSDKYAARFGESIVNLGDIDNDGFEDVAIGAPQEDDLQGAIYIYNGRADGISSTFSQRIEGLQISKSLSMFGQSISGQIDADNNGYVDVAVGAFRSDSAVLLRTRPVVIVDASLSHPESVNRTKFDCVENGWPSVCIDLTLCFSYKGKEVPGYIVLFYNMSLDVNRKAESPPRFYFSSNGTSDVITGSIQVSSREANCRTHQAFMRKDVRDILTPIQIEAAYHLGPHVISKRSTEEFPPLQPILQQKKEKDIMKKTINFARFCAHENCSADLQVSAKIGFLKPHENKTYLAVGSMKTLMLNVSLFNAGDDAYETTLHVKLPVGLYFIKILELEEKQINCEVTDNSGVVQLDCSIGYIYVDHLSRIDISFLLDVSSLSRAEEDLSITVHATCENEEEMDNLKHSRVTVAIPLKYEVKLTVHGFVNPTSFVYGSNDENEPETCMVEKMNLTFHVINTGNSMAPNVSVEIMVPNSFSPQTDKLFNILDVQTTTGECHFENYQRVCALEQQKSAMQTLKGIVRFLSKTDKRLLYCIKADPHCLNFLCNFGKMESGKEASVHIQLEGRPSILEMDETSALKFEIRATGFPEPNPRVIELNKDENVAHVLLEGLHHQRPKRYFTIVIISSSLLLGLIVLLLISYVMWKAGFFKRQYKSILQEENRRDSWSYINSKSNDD
T2 sequence (P26010 20-798): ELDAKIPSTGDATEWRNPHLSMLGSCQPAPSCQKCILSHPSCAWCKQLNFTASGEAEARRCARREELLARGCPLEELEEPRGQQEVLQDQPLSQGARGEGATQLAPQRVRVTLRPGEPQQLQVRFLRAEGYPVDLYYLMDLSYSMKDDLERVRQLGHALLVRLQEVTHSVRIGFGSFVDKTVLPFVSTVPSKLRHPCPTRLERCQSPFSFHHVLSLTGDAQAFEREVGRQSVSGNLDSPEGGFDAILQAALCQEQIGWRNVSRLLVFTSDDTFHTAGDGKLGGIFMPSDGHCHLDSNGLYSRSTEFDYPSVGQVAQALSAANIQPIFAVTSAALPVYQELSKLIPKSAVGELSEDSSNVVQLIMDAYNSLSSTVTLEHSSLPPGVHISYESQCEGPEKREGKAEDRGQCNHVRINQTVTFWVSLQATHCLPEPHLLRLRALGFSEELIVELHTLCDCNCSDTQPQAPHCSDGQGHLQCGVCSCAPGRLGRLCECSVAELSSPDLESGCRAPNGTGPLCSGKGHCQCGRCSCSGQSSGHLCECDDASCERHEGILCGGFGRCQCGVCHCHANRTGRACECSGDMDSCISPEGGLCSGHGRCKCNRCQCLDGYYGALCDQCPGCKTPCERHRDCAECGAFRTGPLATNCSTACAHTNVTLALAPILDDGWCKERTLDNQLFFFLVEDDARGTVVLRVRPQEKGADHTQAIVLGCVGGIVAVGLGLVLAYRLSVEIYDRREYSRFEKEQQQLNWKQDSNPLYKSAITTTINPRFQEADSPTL
Protocol: α4β7-K562 Cell Adhesion Assay (α4β7 Mediated Adhesion/MAdCAM-1)
M2 anti-FLAG Antibody Coated 96-well plates (Sigma) were coated for 1 hour at 4° C. with 2-8 μl/well recombinant FLAG-hMAdCAM-1 contained in 100 μL of Dulbecco's PBS, pH 7.4, with 1% BSA and 1 mM Mn ^+2 (PBS-BSA-Mn). Plates were washed once with PBS-BSA-Mn. Buffer was removed and compounds to be tested (50 μL) were added at 2× concentration. Stably transfected K562 cells expressing human α4β7 integrin, (50 μL at 2×10^6/mL) that had been labeled with 100 μg/ml carboxymethyl fluorescein diacetate succinimidyl ester (CFDA-SE; Molecular Probes) for 15 min at 37° C. were added to each well and allowed to adhere for 1 h at room temperature. Plates were washed 4× in PBS-BSA-Mn and then cells were lysed for 2 minutes by addtion of 100 μL of PBS without Ca, Mg supplemented with 0.1 M NaOH.

T1 sequence (P05556 21-798, one chain of several): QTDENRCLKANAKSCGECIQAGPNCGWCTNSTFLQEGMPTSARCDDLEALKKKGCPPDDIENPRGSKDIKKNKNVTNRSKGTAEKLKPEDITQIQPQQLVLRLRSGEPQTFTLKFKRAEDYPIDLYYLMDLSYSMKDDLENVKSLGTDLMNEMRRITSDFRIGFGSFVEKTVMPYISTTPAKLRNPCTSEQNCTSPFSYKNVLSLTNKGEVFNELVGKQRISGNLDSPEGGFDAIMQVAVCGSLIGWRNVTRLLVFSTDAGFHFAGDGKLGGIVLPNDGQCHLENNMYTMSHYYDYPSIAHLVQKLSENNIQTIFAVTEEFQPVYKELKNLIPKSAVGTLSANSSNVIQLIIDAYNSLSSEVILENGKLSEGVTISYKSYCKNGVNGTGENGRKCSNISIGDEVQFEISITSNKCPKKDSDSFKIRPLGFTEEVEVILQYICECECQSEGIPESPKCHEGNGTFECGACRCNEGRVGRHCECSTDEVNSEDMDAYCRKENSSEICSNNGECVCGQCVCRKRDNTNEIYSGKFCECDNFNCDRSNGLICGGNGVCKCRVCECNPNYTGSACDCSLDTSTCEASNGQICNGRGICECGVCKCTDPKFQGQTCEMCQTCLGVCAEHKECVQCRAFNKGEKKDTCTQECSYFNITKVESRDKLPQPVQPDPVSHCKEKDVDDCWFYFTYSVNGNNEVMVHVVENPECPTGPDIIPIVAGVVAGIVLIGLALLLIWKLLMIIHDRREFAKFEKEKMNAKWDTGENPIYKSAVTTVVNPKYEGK

SMILES	IC50 (α4β1)	IC50 (human α4β7 integrin)
COCCOCCOC(=O)[C@H](Cc1ccc(-c2c(OC)cnn(C)c2=O)cc1)NC(=O)c1c(Cl)cccc1Cl [Cpd 91]	2380 nM	49 nM
CC(C)(C)C(=O)Cn1ncc(NC2CC2)c(-c2ccc(C[C@H](NC(=O)c3c(Cl)cccc3Cl)C(=O)O)cc2)c1=O [Cpd 92]	> 5000 nM	52 nM
O=C(N[C@@H](Cc1ccc(-c2c(Cl)cnn(CC3CC3)c2=O)cc1)C(=O)O)c1c(Cl)cccc1Cl [Cpd 93, (S)-3-[4-(5-Chloro-2-cyclopropylmethyl-3-oxo-2,3-dihydro-pyridazin-4-yl)-phenyl]-2-(2,6-dichloro-benzoylamino)-propionic acid]	> 5000 nM	52 nM
O=C(N[C@@H](Cc1ccc(-c2c(-n3cc(Br)cn3)cnn(CCO)c2=O)cc1)C(=O)O)c1c(Cl)cccc1Cl [Cpd 94]	1320 nM	53 nM
Cn1ncc(O)c(-c2ccc(C[C@H](NC(=O)c3c(Cl)cccc3Cl)C(=O)O)cc2)c1=O [Cpd 95, (S)-2-(2,6-Dichloro-benzoylamino)-3-[4-(5-hydroxy-2-methyl-3-oxo-2,3-dihydro-pyridazin-4-yl)-phenyl]-propionic acid]	480 nM	53.5 nM
COc1cnn(C)c(=O)c1-c1ccc(C[C@H](NC(=O)CN(C)C(=O)OCc2ccccc2)C(=O)O)cc1 [Cpd 96]	1790 nM	56 nM
COc1cnn(C)c(=O)c1-c1ccc(CC(NC(=O)c2c(Cl)cccc2Cl)C(=O)OCCO)cc1 (centres unmarked) [Cpd 97, 2-(2,6-Dichloro-benzoylamino)-3-[4-(5-methoxy-2-methyl-3-oxo-2,3-dihydro-pyridazin-4-yl)-phenyl]-propionic acid 2-hydroxy-ethyl ester]	3240 nM	58 nM
COc1cnn(C)c(=O)c1-c1ccc(C[C@H](NC(=O)C2(NC3CCCCC3)CCOCC2)C(=O)O)cc1 [Cpd 98]	3840 nM	248 nM
COc1cnn(C)c(=O)c1-c1ccc(C[C@H](NC(=O)C23CCC(CC2)CN3)C(=O)O)cc1 [Cpd 99]	264 nM	60 nM
COc1cnn(C)c(=O)c1-c1ccc(C[C@H](NC(=O)[C@@H]2C3CCC(CC3)N2C(=O)CCC(C)C)C(=O)O)cc1 [Cpd 100]	272 nM	60 nM
COc1cnn(C)c(=O)c1-c1ccc(C[C@H](NC(=O)[C@@H]2C3CCC(CC3)N2C(=O)OCc2ccccc2)C(=O)O)cc1 [Cpd 103]	629 nM	67 nM
COc1cnn(C)c(=O)c1-c1ccc(CC(NC(=O)C(NC(=O)Cc2ccsc2)C(C)C)C(=O)O)cc1 (centres unmarked) [Cpd 107, 3-[4-(5-Methoxy-2-methyl-3-oxo-2,3-dihydro-pyridazin-4-yl)-phenyl]-2-[3-methyl-2-(2-thiophen-3-yl-acetylamino)-butyrylamino]-propionic acid]	306 nM	71 nM
COc1cnn(C)c(=O)c1-c1ccc(C[C@H](NC(=O)[C@@H]2C3CCC(CC3)N2S(=O)(=O)c2ccccc2)C(=O)O)cc1 [Cpd 108]	2.7 nM	72 nM
CC(C)COC(=O)N[C@@H](Cc1ccc(-c2c(OCC(C)C)cnn(C)c2=O)cc1)C(=O)O [Cpd 111]	> 5000 nM	82 nM
Cn1ncc(OC(F)F)c(-c2ccc(C[C@H](NC(=O)c3c(Cl)cccc3Cl)C(=O)O)cc2)c1=O [Cpd 112, (S)-2-(2,6-Dichloro-benzoylamino)-3-[4-(5-difluoromethoxy-2-methyl-3-oxo-2,3-dihydro-pyridazin-4-yl)-phenyl]-propionic acid]	289 nM	85 nM
COc1cnn(C)c(=O)c1-c1ccc(C[C@H](NC(=O)[C@@H]2C3CCC(CC3)N2C(=O)Cc2ccsc2)C(=O)O)cc1 [Cpd 113]	44 nM	88 nM
COc1cnn(C)c(=O)c1-c1ccc(C[C@H]2C(=O)OCN2C(=O)c2c(Cl)cccc2Cl)cc1 [Cpd 114, (S)-4-{4-[3-(2,6-Dichloro-benzoyl)-5-oxo-oxazolidin-4-ylmethyl]-phenyl}-5-methoxy-2-methyl-2H-pyridazin-3-one]	> 5000 nM	93 nM
COc1cnn(C)c(=O)c1-c1ccc(C[C@H](NC(=O)C23CCC(CC2)CN3C(=O)CCc2ccco2)C(=O)O)cc1 [Cpd 115]	63.5 nM	94 nM
COc1cnn(C)c(=O)c1-c1ccc(C[C@H](NC(=O)C2(N)CCOCC2)C(=O)O)cc1 [Cpd 116]	656 nM	97 nM
COc1cnn(Cc2ccccc2)c(=O)c1-c1ccc(C[C@H](NC(=O)c2c(Cl)cccc2Cl)C(=O)O)cc1 [Cpd 117]	518 nM	102 nM
COc1cnn(C)c(=O)c1-c1ccc(C[C@H](NC(=O)c2c(Cl)cccc2Cl)C(=O)OCCN2CCOCC2)cc1 [Cpd 118]	1290 nM	103 nM
COc1cnn(C)c(=O)c1-c1ccc(C[C@H](NC(=O)c2c(Cl)cccc2Cl)C(=O)NCCO)cc1 [Cpd 119]	3800 nM	105 nM
CCOC(=O)Cc1cnn(C)c(=O)c1-c1ccc(C[C@H](NC(=O)c2c(Cl)cccc2Cl)C(=O)O)cc1 [Cpd 121, (S)-2-(2,6-dichloro-benzoylamino)-3-[4-(5ethoxycarbonylmethyl-2-methyl-3-oxo-2,3-dihydro-pyridazin-4-yl)-phenyl]-propionic acid]	> 5000 nM	114 nM
COc1cnn(C)c(=O)c1-c1ccc(C[C@H](NC(=O)C23CCC(CC2)CN3C(=O)CCc2cnc[nH]2)C(=O)O)cc1 [Cpd 122]	142 nM	118 nM
COc1cnn(C)c(=O)c1-c1ccc(C[C@H](NC(=O)CC(C)C)C(=O)O)cc1 [Cpd 124]	> 1000 nM	119 nM
COCCC(=O)N1C2CCC(CC2)[C@H]1C(=O)N[C@@H](Cc1ccc(-c2c(OC)cnn(C)c2=O)cc1)C(=O)O [Cpd 125]	112 nM	123 nM
COc1cnn(C)c(=O)c1-c1ccc(C[C@H](NC(=O)C23CCC(CC2)CN3C(=O)OC(C)(C)C)C(=O)O)cc1 [Cpd 126]	2460 nM	127 nM
COc1cnn(C)c(=O)c1-c1ccc(C[C@H](NC(=O)[C@@H](O)C(C)C)C(=O)O)cc1 [Cpd 127]	> 1000 nM	133 nM
